Here are results for nine molecules from patent US10093629B2, “Heterocyclic compounds and their use as retinoid-related orphan receptor (ROR) gamma-T inhibitors” (Takeda Pharmaceutical Company Limited, priority 2014, dated 2018).

In assay [1] the target is T1, RORγt (Homo sapiens, UniProt P51449).
T1 sequence (P51449 1-497 isoform P51449-2): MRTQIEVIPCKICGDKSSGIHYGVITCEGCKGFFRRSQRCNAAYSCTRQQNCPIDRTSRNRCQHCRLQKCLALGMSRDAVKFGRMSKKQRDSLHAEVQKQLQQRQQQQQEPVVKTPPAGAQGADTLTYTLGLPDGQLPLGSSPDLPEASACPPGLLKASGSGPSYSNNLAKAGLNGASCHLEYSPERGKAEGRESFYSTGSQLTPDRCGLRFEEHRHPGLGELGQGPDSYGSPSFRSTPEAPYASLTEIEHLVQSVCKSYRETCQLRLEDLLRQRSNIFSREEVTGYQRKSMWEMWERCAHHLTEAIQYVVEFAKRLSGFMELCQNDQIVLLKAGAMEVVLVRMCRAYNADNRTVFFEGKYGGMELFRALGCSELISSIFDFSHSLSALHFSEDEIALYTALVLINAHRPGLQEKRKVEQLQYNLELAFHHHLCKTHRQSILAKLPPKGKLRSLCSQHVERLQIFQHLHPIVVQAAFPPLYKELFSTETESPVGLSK
The experiment in a line: RORγt binding test using fluorescent-labeled synthetic ligand (TR-FRET). The note with it: test compound 1 μM; for inhibition at 1 µM: read-out: binding inhibitory rate of fluorescent-labeled synthetic ligand to RORγt at test compound 1 μM. The method, then: RORγt Binding Test using Fluorescent-Labeled Synthetic Ligand
The binding activity of the test compound to RORγt was measured by a time resolved fluorescence resonance energy transfer method (TR-FRET) utilizing histidine-tagged RORγt, fluorescent-labeled synthetic ligand and terbium-labeled anti-histidine tag antibody (Invitrogen). First, a test compound diluted with an assay buffer (20 mM Tris-HCl (pH 7.5), 100 mM NaCl, 1 mM DTT, 0.1% BSA) was added to a 384 well plate by 3 μL. Then, RORγt diluted with an assay buffer to 240 nM was added by 3 μL, after which fluorescent-labeled synthetic ligand diluted with the assay buffer to 12 μM was added by 3 μL, and the mixture was stood at room temperature for 20 min. Thereafter, a terbium-labeled anti-histidine tag antibody diluted with the assay buffer to 8 nM was added by 3 μL. The mixture was stood at room temperature for 20 min, and fluorescence intensity (excitation wavelength 320 nm, fluorescence wavelength 520 nm, delay time 100 microseconds) was measured by Envision (PerkinElmer).

The target in assay [2] is T1, RORγt. Kind of assay: Cofactor recruitment test (Alpha Screen, biotinylated SRC-1 peptide). The class given is biochemical. The note with it: test compound 1 μM; for inhibition at 1 µM: read-out: signal value inhibitory rate at test compound 1 μM. The method, then: Cofactor Recruitment Test
Cofactor recruitment test was performed by Alpha Screen (Histidine Detection Kit, PerkinElmer) method. First, a test compound was diluted with an assay buffer (50 mM Tris-HCl (pH 7.5), 50 mM KCl, 1 mM DTT, 0.1% BSA) and added to a 384 well plate by 5 μL. […] The mixture was stood in a dark place for 1 hr, and the signal value was measured by Envision (PerkinElmer).

Assay [3] concerns the target T1, RORγt. Kind of assay: Jurkat reporter test (human IL-17 ROR response element luciferase, RORγt vector). The class given is cell-based. The note with it: Jurkat cells; for inhibition at 3 µM: Jurkat, test compound 3 μM, read-out: luminescence level inhibitory rate at test compound 3 μM. As to the method:
The Jurkat cells used for the reporter test were cultured in a culture medium (RPMI (Invitrogen), 10% FCS (AusGeneX), 100 U/mL penicillin, 100 μg/mL streptomycin). On the day of the test, 4×10^7 cells were recovered by a centrifugal operation (1000 rpm, 5 min.) and suspended in PBS (phosphate buffered saline) (Invitrogen). Thereafter, the cells were recovered again by a centrifugal operation, and suspended in 2 mL of R buffer (NEON transfection kit, Invitrogen). […] Gene transfer was performed by Electroporation apparatus (NEON, Invitrogen) under the conditions of pulse voltage 1350 V, interval 10 milliseconds, number of times 3. The cells after gene transfer were suspended in 40 mL of a reaction medium (RPMI, 10% Lipid reduced FCS (HyClone), 10 mM HEPES (pH 7.5), 100 U/mL penicillin, 100 μg/mL streptomycin, 5 μM lovastatin), and plated in a 96 well plate by 90 μL. A test compound diluted with the reaction medium was added by 10 μL, and the cells were cultured overnight in an incubator. Bright-Glo (Promega) was added by 100 μL, and the mixture was stirred at room temperature for 10 min, and the luminescence level was measured by Envision (PerkinElmer).

Assay [4] concerns IL-17 production in human blood. Kind of assay: Effect on IL-17 production in human blood. Type of assay: cell-based. The note with it: 72 h; 10 μM test compound; human peripheral blood, IL-23 and Dynabeads stimulation, 3 days; read-out: percent inhibition at 10 μM (IL-17 production). The method, then: Effect on IL-17 Production in Human Blood
The inhibitory effect of the test compound on IL-17 production in human blood was evaluated as follows. First, 150 μL of peripheral blood collected from healthy individuals using heparinized vacuum blood collection tubes was dispensed into each well of a 96-well plate (Corning), and 45 μL of RPMI 1640 medium (Gibco) containing 10% fetal bovine serum (FBS, Hyclone) and 30 μL of the test compound diluted with the medium were added to each well. The plate was then cultured for 30 min at 37° C. The cells were subsequently stimulated by adding 30 μL of 100 ng/mL human IL-23 (R&D) and 45 μL of Dynabeads Human (Invitrogen) to each well and culturing the plate for 3 days at 37° C. In wells without stimulation, 75 μL of RPMI 1640 medium containing 10% FBS was added instead of the IL-23 and Dynabeads solution. After culturing for 3 days, the culture supernatant was collected, and the amount of IL-17 in the supernatant was measured using an IL-17 ELISA kit (R&D).
The results (percent inhibition of IL-17 production with 10 μM of the test compound) measured by the above-mentioned method are shown in Table 8.

`CCOCC(C)(C)c1c(F)cc(NC(=O)[C@H]2c3ccc(OCC)cc3CCN2C(=O)[C@H]2C[C@@H](CC(=O)O)C2)cc1F` [Example 18, (cis-3-(((1R)-6-ethoxy-1-((4-(1-ethoxy-2-methylpropan-2-yl)-3,5-difluorophenyl)carbamoyl)-3,4-dihydroisoquinolin-2(1H)-yl)carbonyl)cyclobutyl)acetic acid]: the inhibition at 1 µM at RORγt [1] is 101%; on RORγt [2], 70%. On RORγt [3], the inhibition at 3 µM amounted to 97%. Also, the inhibition at 10 µM in assay [4] was 80%.
For `COCc1ccc2c(c1)CCN(C(=O)[C@H]1C[C@H](CC(=O)O)C1)[C@H]2C(=O)Nc1cc(F)c2c(c1)CCC2(C)C` [Example 24, (trans-3-(((1R)-1-((7-fluoro-1,1-dimethyl-2,3-dihydro-1H-inden-5-yl)carbamoyl)-6-(methoxymethyl)-3,4-dihydroisoquinolin-2(1H)-yl)carbonyl)cyclobutyl)acetic acid], the inhibition at 1 µM at RORγt [1] stood at 101%; on RORγt [2], 80%. Further, the inhibition at 3 µM on RORγt [3] came to 101%. The inhibition at 10 µM in assay [4] stood at 92.7%.
Consider `COc1ccc2c(n1)CCN(C(=O)[C@H]1C[C@@H](C(=O)OCc3ccccc3)C1)[C@H]2C(=O)Nc1cc(F)c2c(c1)CCC2(C)C` [Example 36, benzyl cis-3-(((5R)-5-((7-fluoro-1,1-dimethyl-2,3-dihydro-1H-inden-5-yl)carbamoyl)-2-methoxy-7,8-dihydro-1,6-naphthyridin-6(5H)-yl)carbonyl)cyclobutanecarboxylate], for which the inhibition at 1 µM on RORγt [1] came out at 102%; on RORγt [2], 72%. For the same molecule, on RORγt [3], the inhibition at 3 µM is 102%.
Consider `COc1ccc2c(n1)CCN(C(=O)[C@H]1C[C@@H](CC(=O)OCc3oc(=O)oc3C)C1)[C@H]2C(=O)Nc1cc(F)c2c(c1)CCC2(C)C` [Example 38, (5-methyl-2-oxo-1,3-dioxol-4-yl)methyl (cis-3-(((5R)-5-((7-fluoro-1,1-dimethyl-2,3-dihydro-1H-inden-5-yl)carbamoyl)-2-methoxy-7,8-dihydro-1,6-naphthyridin-6(5H)-yl)carbonyl)cyclobutyl)acetate], for which the inhibition at 1 µM at RORγt [1] stood at 102%; on RORγt [2] it was 61%. Further, the inhibition at 3 µM at RORγt [3] is 102%.
Consider `CCOC(=O)C[C@H]1C[C@@H](C(=O)N2CCc3nc(OC)ccc3[C@@H]2C(=O)Nc2cc(F)c3c(c2)CCC3(C)C)C1` [Example 39, ethyl (cis-3-(((5R)-5-((7-fluoro-1,1-dimethyl-2,3-dihydro-1H-inden-5-yl)carbamoyl)-2-methoxy-7,8-dihydro-1,6-naphthyridin-6(5H)-yl)carbonyl)cyclobutyl)acetate], for which the figures for the inhibition at 1 µM on RORγt [1] and at RORγt [2] were 101% and 63%, respectively. Moreover, the inhibition at 3 µM at RORγt [3] was 103%.
With `COCc1ccc2c(c1)CCN(C(=O)[C@H]1C[C@@H](CC(=O)O)C1)[C@H]2C(=O)Nc1cc(F)c2c(c1)CCC2(C)C` [Example 40-A, monopotassium (cis-3-(((1R)-1-((7-fluoro-1,1-dimethyl-2,3-dihydro-1H-inden-5-yl)carbamoyl)-6-(methoxymethyl)-3,4-dihydroisoquinolin-2(1H)-yl)carbonyl)cyclobutyl)acetate acetonitrile solvate], the “binding inhibitory rate of fluorescent-labeled synthetic ligand to RORγt at test compound 1 μM” value at RORγt [1] (1 µM) is on record as 102%. Besides, the “signal value inhibitory rate at test compound 1 μM” value on RORγt [2] (1 µM) came to 87%. In addition, the “luminescence level inhibitory rate at test compound 3 μM” value on RORγt [3] (3 µM) came to 104%.
`COc1ccc2c(n1)CCN(C(=O)[C@H]1C[C@@H](C(=O)OCc3oc(=O)oc3C)C1)[C@H]2C(=O)Nc1cc(F)c2c(c1)CCC2(C)C` [Example 44, (5-methyl-2-oxo-1,3-dioxol-4-yl)methyl cis-3-(((5R)-5-((7-fluoro-1,1-dimethyl-2,3-dihydro-1H-inden-5-yl)carbamoyl)-2-methoxy-7,8-dihydro-1,6-naphthyridin-6(5H)-yl)carbonyl)cyclobutanecarboxylate]: the inhibition at 1 µM turned out to be 102% at RORγt [1] and 61% on RORγt [2]. In addition, the inhibition at 3 µM on RORγt [3] is 102%.
For the molecule `COC(=O)C[C@H]1C[C@@H](C(=O)N2CCc3nc(OC)ccc3[C@@H]2C(=O)Nc2cc(F)c3c(c2)CCC3(C)C)C1` [Example 45, methyl (cis-3-(((5R)-5-((7-fluoro-1,1-dimethyl-2,3-dihydro-1H-inden-5-yl)carbamoyl)-2-methoxy-7,8-dihydro-1,6-naphthyridin-6(5H)-yl)carbonyl)cyclobutyl)acetate], the inhibition at 1 µM on RORγt [1] worked out at 101%; on RORγt [2] it was 66%. In addition, at RORγt [3], the inhibition at 3 µM was 101%.
Turning to `COc1ccc2c(n1)CCN(C(=O)[C@H]1C[C@@H](C(=O)OC)C1)[C@H]2C(=O)Nc1cc(F)c2c(c1)CCC2(C)C` [Example 46, methyl cis-3-(((5R)-5-((7-fluoro-1,1-dimethyl-2,3-dihydro-1H-inden-5-yl)carbamoyl)-2-methoxy-7,8-dihydro-1,6-naphthyridin-6(5H)-yl)carbonyl)cyclobutanecarboxylate], the inhibition at 1 µM at RORγt [1] stood at 102%; at RORγt [2], 69%. Besides, the inhibition at 3 µM at RORγt [3] worked out at 102%.
